Values of other authors, collected in patent US20040131544A1, “In vivo imaging” (priority 1999, published 2004).

Conditions: background statement; Doze, et al., Nuclear Medicine and Biology 27:315-319 (2000)

SMILES: CC(C)NCC(O)COc1cccc2[nH]c3ccccc3c12 (stereo not shown) [carazolol]
- adverse properties (mutagenicity / toxicity): not toxic
